Test results taken from ChEMBL document CHEMBL5046238, “Synthesis, biological evaluation, and in silico studies of potential activators of apoptosis and carbonic anhydrase inhibitors on isatin-5-sulfonamide scaffold” (Eur J Med Chem, 2022).

Columns and labels:
[1] = Antiproliferative activity against human K562/4 cells assessed as growth inhibition measured after 72 hrs by MTT assay; settings: K562/4, 72 h
Carbonic anhydrase 9 = Carbonic anhydrase 9 (Homo sapiens, UniProt Q16790); assay: Inhibition of human CA9 preincubated for 15 mins by phenol red dye based stopped flow CO2 hydration assay
MCF7 [2] = assay: Antiproliferative activity against human MCF7 cells assessed as growth inhibition measured after 72 hrs by MTT assay; settings: MCF7, 72 h
K562 = assay: Antiproliferative activity against human K562 cells assessed as growth inhibition measured after 72 hrs by MTT assay; settings: K562, 72 h
MCF7 [3] = assay: Antiproliferative activity against human MCF7 cells assessed as growth inhibition under hypoxia conditions measured after 72 hrs by MTT assay; settings: MCF7, 72 h
T47D [4] = assay: Antiproliferative activity against human T47D cells assessed as growth inhibition under normoxia conditions measured after 72 hrs by MTT assay
T47D [5] = assay: Antiproliferative activity against human T47D cells assessed as growth inhibition under hypoxia conditions measured after 72 hrs by MTT assay
MDA-MB-231 [6] = assay: Antiproliferative activity against human MDA-MB-231 cells assessed as growth inhibition under normoxia conditions measured after 72 hrs by MTT assay; settings: MDA-MB-231, 72 h
MDA-MB-231 [7] = assay: Antiproliferative activity against human MDA-MB-231 cells assessed as growth inhibition under hypoxia conditions measured after 72 hrs by MTT assay; settings: MDA-MB-231, 72 h
[8] = Cytotoxicity against human MCF-10A assessed as cell viability under normoxia conditions measured after 72 hrs by MTT assay; format: toxicity, cell-based; settings: MCF-10A cells
HCT-116 [9] = assay: Antiproliferative activity against human HCT-116p53KO subline assessed as growth inhibition measured after 72 hrs by MTT assay; settings: HCT-116, 72 h
[10] = Cytotoxicity against human MCF-10A assessed as cell viability under hypoxia conditions measured after 72 hrs by MTT assay; format: toxicity, cell-based; settings: MCF-10A cells
HCT-116 [11] = assay: cells; settings: Homo sapiens, HCT-116, 72 h
Description: Antiproliferative activity against human HCT-116 assessed as growth inhibition measured after 72 hrs by MTT assay

Carbonic anhydrase 12 = Carbonic anhydrase 12 (Homo sapiens, UniProt O43570); assay: Inhibition of human CA12 preincubated for 15 mins by phenol red based stopped flow CO2 hydration assay
Carbonic anhydrase 12, sequence (O43570 whole entry): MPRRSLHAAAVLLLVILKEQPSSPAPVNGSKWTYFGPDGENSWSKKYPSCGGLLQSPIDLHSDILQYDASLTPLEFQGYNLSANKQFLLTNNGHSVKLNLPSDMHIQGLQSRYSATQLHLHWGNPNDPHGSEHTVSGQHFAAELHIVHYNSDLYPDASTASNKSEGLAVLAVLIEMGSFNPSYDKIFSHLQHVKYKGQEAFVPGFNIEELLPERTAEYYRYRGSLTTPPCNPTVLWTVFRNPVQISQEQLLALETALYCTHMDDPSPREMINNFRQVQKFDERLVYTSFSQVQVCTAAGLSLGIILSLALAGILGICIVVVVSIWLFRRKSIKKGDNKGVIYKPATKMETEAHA

Which results are given for `NS(=O)(=O)c1ccc2c(c1)C(=O)C(=O)N2Cc1ccncc1`?
IC50 [1]: > 50 µM; Ki (Carbonic anhydrase 9): 1.68 µM; IC50 (MCF7 [2]): > 50 µM; IC50 (K562): > 50 µM

Which results are given for `NS(=O)(=O)c1ccc2c(c1)C(=O)C(=O)N2Cc1ccc(Cl)c(Cl)c1`?
IC50 [1]: > 50 µM; Ki (Carbonic anhydrase 9): 1.46 µM; IC50 (MCF7 [2]): 6.1 µM; IC50 (K562): 17 µM; IC50 (MCF7 [3]): 5.9 µM; IC50 (T47D [4]): 17.1 µM; IC50 (T47D [5]): > 50 µM; IC50 (MDA-MB-231 [6]): 21.8 µM; IC50 (MDA-MB-231 [7]): 18.5 µM; IC50 at 72 h [8]: 6.6 µM; IC50 (HCT-116 [9]): 31 µM; IC50 at 72 h [10]: 7.3 µM; IC50 (HCT-116 [11]): 32 µM

What does the source list for `NS(=O)(=O)c1ccc2c(c1)C(=O)C(=O)N2Cc1c(F)cccc1F`?
IC50 [1]: 40 µM; Ki (Carbonic anhydrase 9): 1.03 µM; IC50 (MCF7 [2]): 22.7 µM; IC50 (K562): 17 µM

With `NS(=O)(=O)c1ccc2c(c1)C(=O)C(=O)N2Cc1c(F)cccc1Cl` as the molecule, how does the IC50 [1] read?
Its IC50 is 18 µM.

And the Ki (Carbonic anhydrase 9)?
Its Ki is 0.204 µM.

And the IC50 (MCF7 [2])?
Its IC50 is 12.8 µM.

And the IC50 (K562)?
Its IC50 is 14.5 µM.

For `NS(=O)(=O)c1ccc2c(c1)C(=O)C(=O)N2Cc1cccc(F)c1`, which IC50 [1] is on record?
The IC50 was 50 µM.

What about the Ki (Carbonic anhydrase 9) of the same molecule?
The Ki was 2.53 µM.

And the Ki (Carbonic anhydrase 12)?
The Ki was > 10 µM.

And the IC50 (MCF7 [2])?
Its IC50 is 26.8 µM.

What about the IC50 (K562) of the same molecule?
The IC50 was 15.5 µM.

For `NS(=O)(=O)c1ccc2c(c1)C(=O)C(=O)N2Cc1ccccc1F`, which IC50 [1] is on record?
The IC50 was 20 µM.

And the Ki (Carbonic anhydrase 9)?
The Ki was 1.11 µM.

And the IC50 (MCF7 [2])?
The IC50 was 8.7 µM.

What about the IC50 (K562) of the same molecule?
Its IC50 is 18 µM.

Which results are given for `NS(=O)(=O)c1ccc2c(c1)C(=O)C(=O)N2Cc1ccccc1`?
IC50 [1]: > 50 µM; Ki (Carbonic anhydrase 9): 1.53 µM; IC50 (MCF7 [2]): 20.1 µM; IC50 (K562): 18 µM

Which results are given for `Cc1ccc(CN2C(=O)C(=O)c3cc(S(N)(=O)=O)ccc32)cc1C`?
IC50 [1]: 17 µM; Ki (Carbonic anhydrase 9): 0.276 µM; IC50 (MCF7 [2]): 4.4 µM; IC50 (K562): 8 µM; IC50 (MCF7 [3]): 3.9 µM; IC50 (T47D [4]): 9.4 µM; IC50 (T47D [5]): 11.1 µM; IC50 (MDA-MB-231 [6]): 7.4 µM; IC50 (MDA-MB-231 [7]): 9.4 µM; IC50 at 72 h [8]: 6.2 µM; IC50 (HCT-116 [9]): 15 µM; IC50 at 72 h [10]: 6 µM; IC50 (HCT-116 [11]): 17 µM

What does the source list for `NS(=O)(=O)c1ccc2c(c1)C(=O)C(=O)N2Cc1ccc(F)cc1`?
IC50 [1]: > 50 µM; Ki (Carbonic anhydrase 9): 0.24 µM; IC50 (MCF7 [2]): 17.3 µM; IC50 (K562): 36 µM

Which results are given for `NS(=O)(=O)c1ccc2c(c1)C(=O)C(=O)N2Cc1cc(F)cc(F)c1`?
IC50 [1]: 37 µM; Ki (Carbonic anhydrase 9): 1.32 µM; IC50 (MCF7 [2]): 26.5 µM; IC50 (K562): 35 µM

What does the source list for `NS(=O)(=O)c1ccc2c(c1)C(=O)C(=O)N2Cc1ccc(C(F)(F)F)cc1`?
IC50 [1]: 50 µM; Ki (Carbonic anhydrase 9): 0.811 µM; IC50 (MCF7 [2]): 8.2 µM; IC50 (K562): 16 µM; IC50 (MCF7 [3]): 5.5 µM; IC50 (T47D [4]): 22.6 µM; IC50 (T47D [5]): 32.6 µM; IC50 (MDA-MB-231 [6]): 27.1 µM; IC50 (MDA-MB-231 [7]): 16.3 µM; IC50 (HCT-116 [9]): 34 µM; IC50 (HCT-116 [11]): 30 µM

What does the source list for `NS(=O)(=O)c1ccc2c(c1)C(=O)C(=O)N2CCc1ccccc1`?
IC50 [1]: 36 µM; Ki (Carbonic anhydrase 9): 1.81 µM; IC50 (MCF7 [2]): 31.8 µM; IC50 (K562): 17.2 µM
